# Calls of active or inactive are those of the source. The rule behind the calls is not given here.
# Columns and labels:
# Influenza A virus [1] = assay: Antiviral activity against Influenza A virus (A/Puerto Rico/8/1934(H1N1)) infected in MDCK cells incubated for 48 hrs by MTT assay; type: functional, organism-based
# [2] = Cytotoxicity against dog MDCK cells incubated for 48 hrs by MTT assay; type: cell-based, Canis lupus familiaris
# Influenza A virus [3] = assay: Antiviral activity against Influenza A virus (A/Puerto Rico/8/1934(H1N1)) infected in MDCK cells pre-treated with virus for 30 mins followed by cell infection for 1 hr by MTT assay; type: functional, organism-based
# MDCK = assay: Inhibition of V-ATPase in dog MDCK cells assessed as decrease in fluorescence intensity at 5 uM incubated for 20 mins by acridine orange staining-based fluorescence quenching method (reference value: 100%); type: cell-based; conditions: Canis lupus familiaris
# Influenza A virus [4] = assay: Antiviral activity against Influenza A virus (A/Puerto Rico/8/34(H1N1)) infected in MDCK cells assessed as reduction in NP expression level at 0.5 to 1 ng/ml pre-treated with virus for 30 mins followed by cell infection for 1 hr and measured after 24 hrs post infection by indirect immunofluorescence assay; type: functional, organism-based; conditions: A/Puerto Rico/8/1934(H1N1), dose 0.5-1 ng/ml, time 1470.0 min
# Influenza A virus [5] = assay: Antiviral activity against Influenza A virus (A/Puerto Rico/8/34(H1N1)) infected in MDCK cells assessed as reduction in HA mRNA level at 1 ng/ml pre-treated with virus for 30 mins followed by cell infection for 1 hr and measured after 24 hrs post infection by SYBR green dye-based qRT-PCR analysis; type: functional, organism-based; conditions: A/Puerto Rico/8/1934(H1N1), time 1470.0 min
# Influenza A virus [6] = assay: Antiviral activity against Influenza A virus (A/Puerto Rico/8/34(H1N1)) infected in MDCK cells assessed as reduction in M1 mRNA level at 1 ng/ml pre-treated with virus for 30 mins followed by cell infection for 1 hr and measured after 24 hrs post infection by SYBR green dye-based qRT-PCR analysis; type: functional, organism-based; conditions: A/Puerto Rico/8/1934(H1N1), time 1470.0 min
# SARS-CoV-2 [7] = assay: Antiviral activity against SARS-CoV-2 nCoV-2019 BetaCoV/Wuhan/WIV04/2019 infected in Vero E6 cells assessed as S gene expression preincubated with virus for 30 mins followed by cell infection for 1 hr and measured at 24 hrs post infection by qRT-PCR method; type: functional, organism-based; conditions: Severe acute respiratory syndrome coronavirus 2, nCoV-2019 BetaCoV/Wuhan/WIV04/2019, Vero C1008
# SARS-CoV-2 [8] = assay: Antiviral activity against SARS-CoV-2 nCoV-2019 BetaCoV/Wuhan/WIV04/2019 infected in Vero E6 cells assessed as reduction in NP expression at 0.005 to 0.5 ug/ml preincubated with cells for 1 hr followed by viral addition for 1 hr and measured at 24 hrs post infection by indirect immunofluorescence assay; type: functional, organism-based; conditions: Severe acute respiratory syndrome coronavirus 2, dose 0.005-0.5 µg/ml, time 26.0 hrs
# SARS-CoV-2 [9] = assay: Antiviral activity against SARS-CoV-2 nCoV-2019 BetaCoV/Wuhan/WIV04/2019 infected in Vero E6 cells assessed as S gene expression preincubated with cells for 1 hr followed by viral addition for 1 hr and measured at 24 hrs post infection by qRT-PCR method; type: functional, organism-based; conditions: Severe acute respiratory syndrome coronavirus 2, nCoV-2019 BetaCoV/Wuhan/WIV04/2019, Vero C1008
SMILES,IC50 (Influenza A virus [1]),CC50 at 48 h [2],IC50 (Influenza A virus [3]),Flu intensity (MDCK),Activity (Influenza A virus [4]),Activity (Influenza A virus [5]),Activity (Influenza A virus [6]),IC50 (SARS-CoV-2 [7]),Activity (SARS-CoV-2 [8]),IC50 (SARS-CoV-2 [9])
CCOC(=O)c1c(CSc2ccccc2)n(C)c2cc(Br)c(O)c(CN(C)C)c12 [UMIFENOVIR],460 nM,46400 nM,400 nM,,,,,,,
CO/C1=C\C(C)=C\[C@@H](C)[C@@H](O)[C@@H](C)C/C(C)=C/C=C/[C@H](OC)[C@@H]([C@@H](C)[C@@H](O)[C@H](C)[C@@]2(O)C[C@@H](O)[C@H](C)[C@@H](C(C)C)O2)OC1=O [BAFILOMYCIN A1],580 nM,1410 nM,0.06 nM,85.3%,,,,,,
CO/C1=C/C(C)=C/[C@@H](C)[C@H](O)[C@@H](C)C/C(C)=C/C=C/[C@H](OC)[C@@H]([C@@H](C)[C@@H](O)[C@H](C)[C@]2(O)C[C@H](OC)[C@@H](C)[C@H](C(C)C)O2)OC1=O,140 nM,190 nM,0.65 nM,,,,,,,
CO/C1=C/C(C)=C/[C@@H](C)[C@H](O)[C@@H](C)C/C(C)=C/C=C/[C@H](OC)[C@@H]([C@@H](C)[C@@H](O)[C@H](C)[C@]2(O)C[C@H](OC(=O)/C=C/C(=O)NC3=C(O)CCC3=O)[C@@H](C)[C@H](C(C)C)O2)OC1=O,100 nM,1310 nM,0.17 nM,78.4%,Active,Active,Active,,,
CO/C1=C/C(C)=C/[C@@H](C)[C@H](O)[C@@H](C)C/C(C)=C/C=C/[C@H](OC)[C@@H]([C@@H](C)[C@@H](O)[C@H](C)[C@]2(OC)C[C@H](O)[C@@H](C)[C@H](C(C)C)O2)OC1=O,170 nM,1710 nM,0.11 nM,88.7%,,,,,,
CO/C1=C/C(C)=C/[C@@H](C)[C@H](O)[C@@H](C)C/C(C)=C/C=C/[C@H](OC)[C@@H]([C@@H](C)[C@@H](O)[C@H](C)[C@]2(OC)C[C@H](OC)[C@@H](C)[C@H](C(C)C)O2)OC1=O,260 nM,1290 nM,0.18 nM,,,,,,,
CO/C1=C/C(C)=C/[C@@H](C)[C@H](O)[C@@H](C)C/C(C)=C/C=C/[C@H](OC)[C@@H]([C@@H](C)[C@@H](O)[C@H](C)[C@]2(OC)C[C@H](OC(=O)/C=C/C(=O)NC3=C(O)CCC3=O)[C@@H](C)[C@H](C(C)C)O2)OC1=O,50 nM,240 nM,0.1 nM,73.6%,Active,Active,Active,8.32 nM,Active,5.11 nM
CO/C1=C/C(C)=C/[C@@H](C)[C@H](O)[C@@H](C)C/C(C)=C/C=C/[C@H](OC)[C@@H]([C@@H](C)[C@@H](O)[C@H](C)C(=O)/C=C/C(C)=C/C(C)C)OC1=O,460 nM,3100 nM,2.13 nM,93.5%,,,,,,
CO/C1=C/C(C)=C/[C@@H](C)[C@H](O)[C@@H](C)C/C(C)=C/C=C/[C@H](OC)[C@@H]([C@@H](C)[C@@H](O)[C@H](C)C(=O)/C=C/[C@H](C)[C@H](O)C(C)C)OC1=O,30 nM,910 nM,0.1 nM,82.7%,,,,,,

# From ChEMBL document CHEMBL4813961, “Antiviral Bafilomycins from a Feces-Inhabiting Streptomyces sp” (J Nat Prod, 2021)
